# Assay results from US20030185956A1, “Separation method” (priority 2000, published 2003).
# Legend:
# [1] = Separation in model membrane reactor, water to n-decane across cellulose acetate dialysis membrane; format: physicochemical; settings: for recovered into the decane / amount recovered into the decane: Example 5, after 2.5 days; for recovered into the decane: 20 g macerated grapefruit peel (nootkatone 4.3 mg, limonene 135 mg) in 35 ml water; for amount recovered into the decane: grapefruit peel
# Protocol: (§1) Separation experiments were carried out in a small model membrane reactor which consisted of an upper and lower chamber separated by 0.002 m^2 of membrane. Thorough mixing was ensured by use of a magnetic stirrer with a separate stirring bar contained within each chamber. Membrane separations were carried out at room temperature (22° C.).
# Gas Chromatography (g.c.)
# Analysis of valencene, nootkatone, 1,2-epoxyoctane and 1-octene.
# Column—SE-30 capillary (Alltech, Carnforth, Lancs, UK), ID 0.32 mm, film thickness 0.25 μm.
# Temperature program 200° C. for 5 min. 10° C. min^−1
# Injector/detector temperature—300° C.
# Carrier gas-helium, head pressure 0.35 bar
# physchem = settings: 25 °C, water
# [2] = Selective extraction from water into n-decane in dialysis tubing (shaken flask); format: physicochemical; settings: Example 6, 30° C., 45 hours; for amount present in the n-decane phase: 100 mg limonene + 20 mg carvone in 100 ml water, 50 ml n-decane, 150 rpm
# Protocol: Dialysis tubing (cellulose acetate visking tubing MW cut off 12-14,000 Da) containing 50 ml n-decane was added to the flask and the whole incubated at 30° C. with shaking at 150 rpm for 45 hours.
# [3] = Product recovery from fungal culture broth into solvent in dialysis tubing; format: physicochemical; settings: for recovered into the n-decane: 72 h incubation, nootkatol and nootkatone approx. 3.3 mg combined, valencene approx. 150 mg
# Protocol: Product recovery experiments were carried out in fungal or bacterial cultures or in suspensions of fungal or bacterial cells. Reaction media contained: unreacted substrate valencene at 0.3-1.4 mg ml^−1 and the reaction products nootkatol and nootkatone in concentrations ranging from 0.02-0.2 mg ml^−1. Nootkatol and nootkatone differ from the substrate valencene by the presence of only a single hydroxyl or a single keto group respectively. [drawing 1]
# Dialysis tubing (as described in Example 1) pre-soaked in deionised water, containing n-hexane (50 ml) was added to each of two separate fungal cultures. On addition of hexane filled tubing, reaction mixtures contained the following:
# Culture one contained culture broth and biomass (100 ml), residual valencene (approximately 35 mg) and product nootkatone (2.3 mg). Culture two contained culture broth and biomass (100 ml), residual valencene (approximately 33 mg), product nootkatone (3.8 mg), and Tween 80 (trade mark) (1.3 g).
# After 48 h extraction time (30° C., shaking at 160 rpm), 96% of nootkatone had been recovered from culture broth one into n-hexane in the dialysis tubing. The remaining nootkatone was detected in the culture broth. Valencene was not detected in the n-hexane extraction solvent. The efficiency of extraction from culture broth two was 68%. The remaining nootkatone was detected in the culture broth. A trace amount of valencene was detected in the extraction solvent.
# Dialysis tubing (details described in Example 7) pre-soaked in deionised water, containing n-decane (50 ml) was added to a fungal culture medium containing: culture broth and biomass (100 ml); residual valencene (approximately 150 mg) and the products nootkatol and nootkatone (approx. 3.3 mg combined weight). After 72 h incubation (conditions described in Example 7) 100% of the nootkatol and nootkatone products had been recovered into the n-decane in the dialysis tubing. Valencene was not detected in the n-decane.
# [4] = Separation in model membrane reactor across Supor membrane; format: physicochemical; settings: Example 3
# Protocol: as §1
Compound,amount present in the n-decane phase [2],share of amount originally added to the water phase found in n-decane [2],recovered into the decane [1],amount recovered into the decane [1],recovered into the n-decane ([3]; Example 8),further results
"CCCCCCC1CO1 (stereo not shown) [1,2-epoxyoctane]",–,–,–,–,–,"Rate of flux ([1]; not told): 1.45 g h^−1m^−2 for 1,2-epoxyoctane"
C=C(C)[C@@H]1CCC2=CC(O)C[C@@H](C)[C@]2(C)C1 (stereo partly shown) [nootkatol],–,–,–,–,100%,–
C=C(C)[C@@H]1CCC2=CCC[C@@H](C)[C@]2(C)C1 [valencene],–,–,–,–,–,"presence in the n-hexane extraction solvent ([3]; Example 7, culture one): not detected; presence in the extraction solvent ([3]; Example 7, culture two (with Tween 80)): trace amount; presence in the n-decane ([3]; Example 8, 72 h): not detected"

# The next lines start with results.
amount present in the n-decane phase [2],share of amount originally added to the water phase found in n-decane [2],recovered into the decane [1],amount recovered into the decane [1],Compound,recovered into the n-decane ([3]; Example 8),further results
8 mg,40%,–,–,C=C(C)C1CC=C(C)C(=O)C1 (stereo not shown) [carvone],–,solubility (physchem): ~600 µg/mL
2.0 mg,2%,5%,4.6 mg,C=C(C)[C@H]1CC=C(C)CC1 [limonene],–,–
–,–,"component limonene. After 2.5 days, 28%",1.2 mg,C=C(C)[C@@H]1CCC2=CC(=O)C[C@@H](C)[C@]2(C)C1 [nootkatone],100%,"Rate of flux [4]: 0.130 g h^−1m^−2 for nootkatone; recovered from culture broth into n-hexane ([3]; Example 7, culture one (no Tween 80), 48 h, 30° C., 160 rpm): 96%; efficiency of extraction into n-hexane ([3]; Example 7, culture two (with Tween 80 1.3 g), 48 h, 30° C., 160 rpm): 68%; Rate of flux ([1]; Example 1, cellulose acetate, thickness 0.05 mm, M.W. cut-off 12-14,000 Da): 0.08 g nootkatone h^−1m^−2. g h^−1m^−2"
